Like-named read-outs stand apart in the source and are kept apart here.
How the values were obtained:
[1] = target: T1, CitO-wt (Enterococcus faecalis, UniProt Q82YV4); format: biochemical; settings: for Effect on CitO-PcitH−CL complex formation: EDTA-treated CitO-wt
[2] = target: TM0439; design: method as in Zheng et al., 2009; settings: ref Zheng et al., 2009; cited from earlier work
[3] = target: T1, CitO-wt; assay: Isothermal titration calorimetry of CitO-wt with citrate; format: binding
Description: Measurements were performed on a VP-Microcalorimeter (MicroCal, Northampton, MA) at 25°C. The proteins were thoroughly dialyzed against 10 mM Tris (pH 8.0), 500 mM NaCl, and 2.5% glycerol. A solution of citrate (1 mM, pH 8.0) was directly prepared in dialysis buffer. Each titration involved a series of 3 μl injections of the effector molecule into the protein solution. The mean enthalpies measured from injection of the ligand in the buffer were subtracted from raw titration data prior to data analysis with Origin 8 software (MicroCal). Titration curves were fitted by a nonlinear least squares method to a function for the binding of a ligand to a macromolecule (Wiseman et al., [1989]). From the curve thus fitted, the parameters ΔH (reaction enthalpy), KA (binding constant, KA = 1/KD), and N (reaction stoichiometry) were determined. From the values of KA and ΔH, the changes in free energy (ΔG) and entropy (ΔS) were calculated with the following equation: ΔG = −RT lnKA = ΔH−TΔS; where R is the universal molar gas constant and T is the absolute temperature.

[4] = target: T2, CitO-Q64A (Enterococcus faecalis, UniProt Q82YV4, Q64A); assay: biochemical; format: binding
[5] = target: T3, CitO-H74A (Enterococcus faecalis, UniProt Q82YV4, H74A); assay: biochemical; format: binding
[6] = target: CitO-R97A; format: binding; settings: ITC, 25°C, ni = no interaction
[7] = target: T4, CitO-F143A (Enterococcus faecalis, UniProt Q82YV4, F143A); assay: biochemical; format: binding
[8] = target: CitO-H191A; format: binding; settings: ITC, 25°C, ni = no interaction
[9] = target: T5, CitO-L214A (Enterococcus faecalis, UniProt Q82YV4, L214A); assay: biochemical; format: binding
[10] = target: T1, CitO-wt; format: binding
Description: The assay was carried out as described earlier (Pagliai et al., [2010]). Briefly, CitO (10 μM), in presence or absence of increasing concentrations of citrate or malate (the latter was used as a negative control), was placed (in duplicate) into 96-well plates (Bio-Rad, Hercules, CA) and heated from 25 to 80°C at the rate of 1°C per min. The unfolding of the protein was monitored by the increase in fluorescence of the fluorophore SYPRO Orange (Invitrogen). Fluorescence intensities were plotted against temperature for each sample well and transition curves were fitted with the Boltzmann equation using Origin 8 software (Northampton, MA). The midpoint of each transition curve was calculated and values obtained in presence of the ligand compared to those calculated for CitO in absence of the ligand.

[11] = target: T2, CitO-Q64A; format: binding; settings: DSF
[12] = target: T3, CitO-H74A; format: binding; settings: DSF
[13] = system: CitO-R97A; format: binding; settings: DSF, citrate up to 1 mM
[14] = target: T4, CitO-F143A; format: binding; settings: DSF, 50 μM citrate, Tm = 50°C without citrate
[15] = system: CitO-H191A; format: binding; settings: DSF, citrate up to 1 mM
[16] = target: T5, CitO-L214A; format: binding; settings: DSF, only at 50 μM citrate or higher
[17] = target: T2, CitO-Q64A; format: biochemical; settings: EMSA, 5 mM citrate
[18] = target: T3, CitO-H74A; format: biochemical; settings: EMSA, 5 mM citrate
[19] = system: CitO-R97A; format: biochemical; settings: EMSA, 5 mM citrate
[20] = target: T4, CitO-F143A; format: biochemical; settings: EMSA, 5 mM citrate
[21] = system: CitO-H191A; format: biochemical; settings: EMSA, 5 mM citrate
[22] = target: T5, CitO-L214A; format: biochemical
[23] = system: PcitCL promoter activity; assay: β-galactosidase assay, PcitCL fusion to lacZ in JHB14 strains expressing CitO variants; format: cell-based, E. faecalis; settings: for β-galactosidase activity: LB with 17 mM citrate
[24] = system: CitO; design: method as in Blancato et al., 2008; settings: in vivo and in vitro experiments; ref Blancato et al., 2008; cited from earlier work
[25] = target: CitO, regulator of citrate metabolism from Enterococcus faecalis (Enterococcus faecalis); assay: SEC; Superdex 75; 200 ul of 28.4 uM CitO, with or without 1 mM citrate (pH 8.0), 30 min on ice before injection; 50 mM Tris pH 7.6, 300 mM NaCl, 5% glycerol; 4°C; mass from a standard curve of protein standards
[26] = system: T6, CitO-L214A L214A (Enterococcus faecalis), ORF:7f2fe6d0; assay: EMSA
T6 sequence: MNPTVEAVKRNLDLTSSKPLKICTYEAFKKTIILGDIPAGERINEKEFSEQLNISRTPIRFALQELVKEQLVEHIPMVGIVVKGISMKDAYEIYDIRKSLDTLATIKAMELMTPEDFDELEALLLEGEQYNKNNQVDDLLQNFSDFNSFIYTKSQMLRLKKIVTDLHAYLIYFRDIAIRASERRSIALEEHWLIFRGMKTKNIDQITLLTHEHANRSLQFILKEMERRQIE

[27] = EMSA, 0.2 μM CitO-wt, Me2+ 2 mM, absence of citrate
[28] = EMSA, Me2+ 2 mM together with 5 mM citrate
[29] = DSF, CitO-wt, ligand added, without ligand Tm1 = 43°C, Tm2 = 58°C

## [Ca+2] [Ca^2+]
[1]; [27]
  Effect on binding of CitO to PcitH−CL: did not modify the binding

## O=C(O)CN(CCN(CC(=O)O)CC(=O)O)CC(=O)O [EDTA]
[1]
  Effect on binding of CitO to PcitH−CL: decreased the binding

## [Mg+2] [Mg^2+]
[1]; [27]
  Effect on binding of CitO to PcitH−CL: did not modify the binding

## [Mn+2] [Mn^2+]
[1]; [27]
  Effect on binding of CitO to PcitH−CL: did not modify the binding

## [Ni+2] [Ni^2+]
[1]; [27]
  Effect on binding of CitO to PcitH−CL: decreased the binding
[1]; [28]
  Effect on CitO-PcitH−CL complex formation: increased the stability of the larger CitO-PcitH−CL complexes
[2]
  KD: nanomolar range

## [Zn+2] [Zn^2+]
[1]; [27]
  Effect on binding of CitO to PcitH−CL: decreased the binding
[1]; [28]
  Effect on CitO-PcitH−CL complex formation: increased the stability of the larger CitO-PcitH−CL complexes
[2]
  KD: nanomolar range

## O=C(O)CC(O)(CC(=O)O)C(=O)O [citrate]
[3]
  Kd: 1200 ± 200 nM
[3]; ITC, CitO-wt
  ΔG: -7.9834 kcal/mol
  ΔH: 6.122 kcal/mol
  ΔS (entropy change): 47.3 cal/mol/deg
[4]
  Kd: 770 ± 100 nM
[4]; ITC, CitO-Q64A
  ΔG: -8.34 kcal/mol
  ΔH: 6.724 kcal/mol
[5]
  Kd: 820 ± 40 nM
[5]; ITC, CitO-H74A
  ΔG: -8.4346 kcal/mol
  ΔH: 6.5 kcal/mol
[6]
  KD: did not interact and ni^*
[7]
  Kd: 440 ± 80 nM
[7]; ITC, CitO-F143A
  ΔG: -8.6857 kcal/mol
  ΔH: 16.02 kcal/mol
[8]
  KD: did not interact and ni^*
[9]
  Kd: 1200 ± 200 nM
[9]; ITC, CitO-L214A
  TΔS: 46.5 cal/mol/deg
  ΔG: -8.07 kcal/mol
  ΔH: 5.78 kcal/mol
[10]; [29]
  Shift in the Tm2: induced a shift in the Tm2
[11]; 5 μM citrate
  Shift in Tm: clear shift in Tm
[11]; 50 μM citrate
  Thermal stability: higher stability
[12]
  Interaction with citrate in solution: still able to interact with citrate
[13]
  Denaturation temperature in presence vs absence of citrate: denatured at similar temperature
[14]
  Tm: 57 °C
[15]
  Denaturation temperature in presence vs absence of citrate: denatured at similar temperature
[16]
  ΔTm (increase in Tm2): 4 °C
[1]; EMSA, CitO-wt, citrate up to 5 mM
  Stability of the CitO-DNA complexes: increased
[1]; EMSA, 5 mM citrate alone
  Effect on CitO-PcitH−CL complex formation: improved the formation of intermediate complexes
[17]
  Ability to bind the DNA probe in presence of citrate: comparable to the wild type
[18]
  Effect on formation of protein:DNA complexes: did not modify the formation of protein:DNA complexes
[19]
  Effect on formation of protein:DNA complexes: did not modify the formation of protein:DNA complexes
[20]
  Shift of protein:DNA complex: strong shift
[21]
  Effect on formation of protein:DNA complexes: did not modify the formation of protein:DNA complexes
[22]
  Effect on binding to PcitH−CL: increased the binding
[23]
  Increment in the β-galactosidase activity: 64 fold
[23]; CitO-H191A strain
  β-galactosidase activity: very low β-galactosidase activity
[23]; CitO-R97A strain
  β-galactosidase activity: very low β-galactosidase activity
[23]; strain carrying CitO-H74A
  β-galactosidase activity: reduced β-galactosidase activity
[23]; strain containing CitO-F143A
  β-galactosidase activity: induced
[23]; strain containing CitO-Q64A
  β-galactosidase activity: induced
[23]; strain containing CitO-wt
  β-galactosidase activity: induced
[24]
  Activation of CitO: specifically activated only by citrate

## O=C(O)CC(C(=O)O)C(O)C(=O)O (stereo not shown) [isocitrate]
[10]; [29]
  Shift in the Tm2: did not show a shift in the Tm2

## O=C(O)CC(O)C(=O)O (stereo not shown) [malate]
[10]; [29]
  Shift in the Tm2: did not show a shift in the Tm2

## CitO, regulator of citrate metabolism from Enterococcus faecalis (natural protein)
[25]
  stoichiometry N: 2

## GGTATACGTTCATTATAGAAAAAACCGTTAAAAAACCTAGTGAAAACACTAGCTCAGATTGTTCTTTTATTGTTTATTTTGTGAAAAAAACTCTGTAAACATTGGTATATAAGCATTTATCAGCCGTTAAGATTCTATTAATATTATATTAAGTTATTAATAAGAATTTGATTGTTGAATTGTTTTTTTGATGTTCTTTTTGTTTTAGGCTATTTATTCTCTGCGAAAGTTTGTATATTCTCACAC (double strand) [PcitH-CL]
[26]
  binding: binds

## succinate
[10]
  Shift in the Tm2: did not show a shift in the Tm2
